ChEMBL document CHEMBL1145498, “A systematic interaction map of validated kinase inhibitors with Ser/Thr kinases” (Proc Natl Acad Sci U S A, 2007)

Key:
[1] = biological target: Casein kinase I isoform gamma-3 (Homo sapiens) (UniProt Q9Y6M4)
[2] = biological target: T1, Serine/threonine-protein kinase VRK3 (Homo sapiens) (UniProt Q8IV63)
T1 sequence (whole entry): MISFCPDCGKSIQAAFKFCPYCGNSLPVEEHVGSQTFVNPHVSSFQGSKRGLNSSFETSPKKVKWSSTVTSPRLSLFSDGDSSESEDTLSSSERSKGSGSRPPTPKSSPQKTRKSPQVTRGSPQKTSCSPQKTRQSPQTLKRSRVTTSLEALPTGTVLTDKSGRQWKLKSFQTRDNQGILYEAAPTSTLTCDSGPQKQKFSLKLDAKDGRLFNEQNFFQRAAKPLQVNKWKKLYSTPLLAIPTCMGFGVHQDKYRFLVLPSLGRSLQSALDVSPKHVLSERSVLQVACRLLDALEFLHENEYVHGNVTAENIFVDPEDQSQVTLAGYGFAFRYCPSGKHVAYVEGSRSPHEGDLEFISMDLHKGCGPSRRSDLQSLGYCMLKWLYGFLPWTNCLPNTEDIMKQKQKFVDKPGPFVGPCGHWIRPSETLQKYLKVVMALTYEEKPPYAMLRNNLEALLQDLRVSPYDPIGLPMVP

[3] = biological target: Serine/threonine-protein kinase 10 (Homo sapiens) (UniProt O94804)
[4] = biological target: Serine/threonine-protein kinase 25 (Homo sapiens) (UniProt O00506)
[5] = biological target: Calcium/calmodulin-dependent protein kinase type II subunit gamma (Homo sapiens) (UniProt Q13555)
[6] = biological target: T2, Calcium/calmodulin-dependent protein kinase type IV (Homo sapiens) (UniProt Q16566)
T2 sequence (whole entry): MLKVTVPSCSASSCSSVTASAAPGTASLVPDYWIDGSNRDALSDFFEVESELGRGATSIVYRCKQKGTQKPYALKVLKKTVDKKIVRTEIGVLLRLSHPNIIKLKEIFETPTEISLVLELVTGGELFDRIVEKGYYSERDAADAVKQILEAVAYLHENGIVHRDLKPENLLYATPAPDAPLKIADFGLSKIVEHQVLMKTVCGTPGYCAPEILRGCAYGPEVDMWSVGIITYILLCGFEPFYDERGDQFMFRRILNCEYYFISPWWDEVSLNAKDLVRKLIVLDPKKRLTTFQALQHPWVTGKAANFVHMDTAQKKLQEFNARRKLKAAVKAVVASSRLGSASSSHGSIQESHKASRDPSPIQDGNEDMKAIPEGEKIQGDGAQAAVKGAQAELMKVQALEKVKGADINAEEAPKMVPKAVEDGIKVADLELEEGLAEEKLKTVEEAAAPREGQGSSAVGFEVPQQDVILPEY

[7] = biological target: Serine/threonine-protein kinase PAK 5 (Homo sapiens) (UniProt Q9P286)
[8] = biological target: Serine/threonine-protein kinase VRK2 (Homo sapiens) (UniProt Q86Y07)
[9] = biological target: Mitogen-activated protein kinase 6 (Homo sapiens) (UniProt Q16659)
[10] = biological target: T3, Serine/threonine-protein kinase 4 (Homo sapiens) (UniProt Q13043)
T3 sequence (whole entry): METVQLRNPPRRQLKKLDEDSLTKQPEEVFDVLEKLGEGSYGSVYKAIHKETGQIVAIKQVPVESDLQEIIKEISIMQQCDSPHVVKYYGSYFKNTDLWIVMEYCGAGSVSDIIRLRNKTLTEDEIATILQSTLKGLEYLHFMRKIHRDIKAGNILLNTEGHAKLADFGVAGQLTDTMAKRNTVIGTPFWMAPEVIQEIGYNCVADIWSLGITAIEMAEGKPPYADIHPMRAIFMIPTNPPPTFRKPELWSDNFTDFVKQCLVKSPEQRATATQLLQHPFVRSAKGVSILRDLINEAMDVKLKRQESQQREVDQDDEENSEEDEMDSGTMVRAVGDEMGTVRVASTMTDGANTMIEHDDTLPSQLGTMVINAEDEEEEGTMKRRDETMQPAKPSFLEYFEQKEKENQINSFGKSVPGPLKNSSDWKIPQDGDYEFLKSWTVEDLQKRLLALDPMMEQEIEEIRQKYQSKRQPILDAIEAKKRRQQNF

[11] = biological target: cAMP-dependent protein kinase catalytic subunit alpha (Homo sapiens) (UniProt P17612)
[12] = biological target: Mitogen-activated protein kinase 11 (Homo sapiens, UniProt Q15759)
[13] = biological target: Ribosomal protein S6 kinase alpha-3 (Homo sapiens) (UniProt P51812)
[14] = biological target: TRAF2 and NCK-interacting protein kinase (Homo sapiens) (UniProt Q9UKE5)
[15] = biological target: Serine/threonine-protein kinase PAK 6 (Homo sapiens) (UniProt Q9NQU5)
[16] = biological target: Serine/threonine-protein kinase PAK 4 (Homo sapiens) (UniProt O96013)
[17] = biological target: Serine/threonine-protein kinase RIO2 (Homo sapiens) (UniProt Q9BVS4)
[18] = biological target: Serine/threonine-protein kinase pim-3 (Homo sapiens) (UniProt Q86V86)
[19] = biological target: T4, Dual specificity mitogen-activated protein kinase kinase 6 (Homo sapiens) (UniProt P52564)
T4 sequence (whole entry): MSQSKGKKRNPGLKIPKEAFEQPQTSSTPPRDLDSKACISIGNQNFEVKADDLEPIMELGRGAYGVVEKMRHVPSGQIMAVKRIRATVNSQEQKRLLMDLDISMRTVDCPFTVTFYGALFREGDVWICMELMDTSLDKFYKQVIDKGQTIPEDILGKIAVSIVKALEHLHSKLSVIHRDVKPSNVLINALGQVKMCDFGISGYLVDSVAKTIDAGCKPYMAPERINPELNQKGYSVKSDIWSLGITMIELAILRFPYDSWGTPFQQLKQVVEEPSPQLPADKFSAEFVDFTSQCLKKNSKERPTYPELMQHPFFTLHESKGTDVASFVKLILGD

Calcium/calmodulin-dependent protein kinase type II subunit gamma (Homo sapiens), sequence (Q13555 whole entry): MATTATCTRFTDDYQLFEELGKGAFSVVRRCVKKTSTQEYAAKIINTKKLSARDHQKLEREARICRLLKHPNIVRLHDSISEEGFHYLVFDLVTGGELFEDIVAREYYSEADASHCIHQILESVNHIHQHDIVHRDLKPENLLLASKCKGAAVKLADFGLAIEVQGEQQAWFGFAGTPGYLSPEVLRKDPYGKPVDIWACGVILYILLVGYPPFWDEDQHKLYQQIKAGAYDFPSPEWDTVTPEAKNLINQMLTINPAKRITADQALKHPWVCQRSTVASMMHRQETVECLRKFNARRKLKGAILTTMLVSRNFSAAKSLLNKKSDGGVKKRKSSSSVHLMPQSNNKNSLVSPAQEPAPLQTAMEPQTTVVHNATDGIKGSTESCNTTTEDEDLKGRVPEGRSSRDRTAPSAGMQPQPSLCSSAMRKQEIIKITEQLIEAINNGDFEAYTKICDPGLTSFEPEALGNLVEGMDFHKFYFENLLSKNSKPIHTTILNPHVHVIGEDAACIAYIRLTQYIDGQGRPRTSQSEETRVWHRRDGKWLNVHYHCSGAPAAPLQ
Serine/threonine-protein kinase VRK2 (Homo sapiens), sequence (Q86Y07 whole entry): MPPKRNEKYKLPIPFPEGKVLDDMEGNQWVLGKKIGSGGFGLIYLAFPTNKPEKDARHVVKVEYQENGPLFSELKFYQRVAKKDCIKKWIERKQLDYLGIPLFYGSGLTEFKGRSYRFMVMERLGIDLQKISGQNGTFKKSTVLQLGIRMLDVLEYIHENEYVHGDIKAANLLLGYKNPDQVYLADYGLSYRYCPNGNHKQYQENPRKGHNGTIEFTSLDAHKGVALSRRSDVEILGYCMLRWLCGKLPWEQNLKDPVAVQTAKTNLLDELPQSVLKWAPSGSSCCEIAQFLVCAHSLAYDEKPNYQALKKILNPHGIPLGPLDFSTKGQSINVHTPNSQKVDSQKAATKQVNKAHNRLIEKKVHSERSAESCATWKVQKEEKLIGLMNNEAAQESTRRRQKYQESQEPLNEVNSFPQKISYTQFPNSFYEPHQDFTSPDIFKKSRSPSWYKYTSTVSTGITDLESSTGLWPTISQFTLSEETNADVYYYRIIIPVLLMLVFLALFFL
Casein kinase I isoform gamma-3 (Homo sapiens), sequence (Q9Y6M4 whole entry, looked up, canonical isoform): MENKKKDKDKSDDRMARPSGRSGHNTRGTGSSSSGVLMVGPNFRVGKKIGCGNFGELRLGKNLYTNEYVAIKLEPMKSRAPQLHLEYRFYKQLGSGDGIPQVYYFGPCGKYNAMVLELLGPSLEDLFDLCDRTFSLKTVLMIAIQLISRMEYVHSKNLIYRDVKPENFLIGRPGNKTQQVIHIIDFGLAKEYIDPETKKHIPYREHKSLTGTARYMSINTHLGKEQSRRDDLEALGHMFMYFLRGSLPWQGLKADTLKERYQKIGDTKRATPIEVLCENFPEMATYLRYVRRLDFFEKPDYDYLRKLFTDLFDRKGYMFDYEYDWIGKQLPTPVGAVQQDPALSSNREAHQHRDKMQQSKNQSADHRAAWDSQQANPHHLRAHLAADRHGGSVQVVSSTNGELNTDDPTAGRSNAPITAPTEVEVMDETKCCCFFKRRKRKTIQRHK
TRAF2 and NCK-interacting protein kinase (Homo sapiens), sequence (Q9UKE5 whole entry, looked up): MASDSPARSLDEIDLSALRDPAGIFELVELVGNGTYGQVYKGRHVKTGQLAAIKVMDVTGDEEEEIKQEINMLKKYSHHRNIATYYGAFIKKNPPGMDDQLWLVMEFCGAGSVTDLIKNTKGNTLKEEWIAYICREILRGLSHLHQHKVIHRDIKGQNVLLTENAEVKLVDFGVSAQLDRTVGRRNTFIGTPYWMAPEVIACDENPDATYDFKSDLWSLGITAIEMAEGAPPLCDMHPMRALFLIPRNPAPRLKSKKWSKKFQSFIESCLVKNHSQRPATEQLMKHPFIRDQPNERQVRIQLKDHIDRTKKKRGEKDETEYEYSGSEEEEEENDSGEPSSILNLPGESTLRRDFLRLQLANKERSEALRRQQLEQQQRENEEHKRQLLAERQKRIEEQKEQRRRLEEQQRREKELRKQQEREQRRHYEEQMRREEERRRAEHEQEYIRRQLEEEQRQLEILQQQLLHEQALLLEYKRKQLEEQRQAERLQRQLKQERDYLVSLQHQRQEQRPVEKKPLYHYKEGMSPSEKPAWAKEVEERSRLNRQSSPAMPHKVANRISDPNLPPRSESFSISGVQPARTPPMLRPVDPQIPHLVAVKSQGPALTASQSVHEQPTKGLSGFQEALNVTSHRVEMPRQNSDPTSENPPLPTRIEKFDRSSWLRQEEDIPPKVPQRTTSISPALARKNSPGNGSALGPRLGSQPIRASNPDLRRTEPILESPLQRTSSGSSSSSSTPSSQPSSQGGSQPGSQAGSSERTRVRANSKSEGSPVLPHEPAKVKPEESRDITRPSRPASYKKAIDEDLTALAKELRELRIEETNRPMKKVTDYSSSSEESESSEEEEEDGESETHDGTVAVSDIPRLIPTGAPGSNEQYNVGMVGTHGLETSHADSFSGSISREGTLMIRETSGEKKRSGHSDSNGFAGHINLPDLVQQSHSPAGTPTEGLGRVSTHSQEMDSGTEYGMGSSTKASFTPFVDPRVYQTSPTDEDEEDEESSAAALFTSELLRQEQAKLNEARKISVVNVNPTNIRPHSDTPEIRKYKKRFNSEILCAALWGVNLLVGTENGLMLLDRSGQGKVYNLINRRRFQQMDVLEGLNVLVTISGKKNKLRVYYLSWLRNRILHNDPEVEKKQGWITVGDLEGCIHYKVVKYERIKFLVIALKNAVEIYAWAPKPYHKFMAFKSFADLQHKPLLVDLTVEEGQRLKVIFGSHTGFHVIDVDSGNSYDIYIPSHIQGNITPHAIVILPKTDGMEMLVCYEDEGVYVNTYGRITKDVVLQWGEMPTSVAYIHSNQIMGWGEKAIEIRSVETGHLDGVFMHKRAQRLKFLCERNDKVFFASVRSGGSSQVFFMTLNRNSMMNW
Serine/threonine-protein kinase 25 (Homo sapiens), sequence (O00506 whole entry, looked up): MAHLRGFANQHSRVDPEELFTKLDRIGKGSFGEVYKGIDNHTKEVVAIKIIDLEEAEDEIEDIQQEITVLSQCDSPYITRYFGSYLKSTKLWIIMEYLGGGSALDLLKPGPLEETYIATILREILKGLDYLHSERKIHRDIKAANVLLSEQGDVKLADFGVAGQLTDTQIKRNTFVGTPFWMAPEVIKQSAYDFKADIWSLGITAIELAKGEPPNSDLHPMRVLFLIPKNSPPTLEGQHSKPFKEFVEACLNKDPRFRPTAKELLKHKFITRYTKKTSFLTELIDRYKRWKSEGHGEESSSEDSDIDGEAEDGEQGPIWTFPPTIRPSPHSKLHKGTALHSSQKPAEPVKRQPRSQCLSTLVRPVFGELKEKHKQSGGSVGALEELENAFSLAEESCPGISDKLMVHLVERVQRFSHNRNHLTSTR
Mitogen-activated protein kinase 6 (Homo sapiens), sequence (Q16659 whole entry): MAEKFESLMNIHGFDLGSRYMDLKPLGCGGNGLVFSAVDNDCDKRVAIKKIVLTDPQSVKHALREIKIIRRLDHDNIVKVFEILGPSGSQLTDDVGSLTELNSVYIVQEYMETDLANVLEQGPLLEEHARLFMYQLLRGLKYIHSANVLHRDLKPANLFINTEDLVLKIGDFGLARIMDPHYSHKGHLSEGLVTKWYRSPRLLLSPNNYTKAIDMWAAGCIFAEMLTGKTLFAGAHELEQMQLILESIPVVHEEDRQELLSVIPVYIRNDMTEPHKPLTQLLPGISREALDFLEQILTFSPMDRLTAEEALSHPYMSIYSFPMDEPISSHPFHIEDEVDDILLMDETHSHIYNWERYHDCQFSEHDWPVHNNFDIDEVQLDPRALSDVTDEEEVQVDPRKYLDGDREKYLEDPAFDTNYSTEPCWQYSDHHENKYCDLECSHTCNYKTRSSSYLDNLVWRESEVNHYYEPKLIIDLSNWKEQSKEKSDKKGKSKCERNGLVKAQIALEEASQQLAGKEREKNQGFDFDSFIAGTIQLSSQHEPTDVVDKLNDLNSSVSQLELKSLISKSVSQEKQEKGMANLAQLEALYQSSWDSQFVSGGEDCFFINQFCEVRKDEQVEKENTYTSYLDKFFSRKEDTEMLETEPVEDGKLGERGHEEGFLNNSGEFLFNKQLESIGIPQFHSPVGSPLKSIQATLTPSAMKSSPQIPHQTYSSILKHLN
Mitogen-activated protein kinase 11, sequence (Q15759 whole entry): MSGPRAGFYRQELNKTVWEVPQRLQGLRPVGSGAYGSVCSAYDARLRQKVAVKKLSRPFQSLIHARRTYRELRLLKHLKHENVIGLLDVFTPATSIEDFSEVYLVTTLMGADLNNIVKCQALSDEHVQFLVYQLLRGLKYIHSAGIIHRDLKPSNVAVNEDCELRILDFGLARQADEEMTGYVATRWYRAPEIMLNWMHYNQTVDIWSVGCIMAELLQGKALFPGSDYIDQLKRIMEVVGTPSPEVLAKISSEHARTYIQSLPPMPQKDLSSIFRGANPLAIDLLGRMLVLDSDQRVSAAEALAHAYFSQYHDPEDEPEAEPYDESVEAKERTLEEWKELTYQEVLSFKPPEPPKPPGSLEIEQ

| Structure (SMILES) | ΔTm [1] | ΔTm [2] | ΔTm [3] | ΔTm [4] | ΔTm [5] | ΔTm [6] | ΔTm [7] | ΔTm [8] | ΔTm [9] | ΔTm [10] | ΔTm [11] | ΔTm [12] | ΔTm [13] | ΔTm [14] | ΔTm [15] | ΔTm [16] | ΔTm [17] | ΔTm [18] | ΔTm [19] |
| --- | --- | --- | --- | --- | --- | --- | --- | --- | --- | --- | --- | --- | --- | --- | --- | --- | --- | --- | --- |
| C[C@@H]1C[C@H]2O[C@@H]2/C=C\C=C\C(=O)Cc2c(Cl)c(O)cc(O)c2C(=O)O1 [RADICICOL] | 0.1 °C | -0.4 °C | -0.4 °C | -0.6 °C | 0 °C | -0.1 °C | 0.6 °C | 0.2 °C | 0.4 °C | 0.3 °C | 0.7 °C | 0.7 °C | 0.2 °C | -0.3 °C | 0.3 °C | 1.3 °C | -0.5 °C | 0.5 °C | 0 °C |
| O=C1Nc2ccccc2/C1=C/c1cnc[nH]1 | 1.5 °C | 0.1 °C | 4.2 °C | 6.3 °C | 1.2 °C | 0.7 °C | 0.7 °C | 2.1 °C | 0.5 °C | 8.4 °C | 1.6 °C | 0.4 °C | 5.8 °C | 6.1 °C | 1.9 °C | 2.2 °C | 1.3 °C | 3.3 °C | 4.7 °C |
| COc1cc(O)c2c(c1)oc(=O)c1c3cc(O)c(O)cc3oc21 [WEDELOLACTONE] | 1.5 °C | -1 °C | 1.3 °C | 2.7 °C | 0.2 °C | 0.8 °C | -0.3 °C | 1.2 °C | 1.5 °C | 2.4 °C | 2.3 °C | 1.5 °C | 1.8 °C | 1.3 °C | -0.6 °C | 1.6 °C | 3.6 °C | 5.9 °C | 0.2 °C |
| CC[C@H](CO)Nc1nc(NCc2ccccc2)c2ncn(C(C)C)c2n1 [SELICICLIB] | – | 0.6 °C | – | 0.3 °C | 0.3 °C | 0.2 °C | 0.6 °C | 2.1 °C | -0.4 °C | 0.3 °C | 0.2 °C | 1 °C | 1.1 °C | 0.4 °C | 0.5 °C | 1.7 °C | 0 °C | 0.5 °C | 0.2 °C |
| COc1ccc2c(c1)/C(=C/c1cnc[nH]1)C(=O)N2 [SU-9516] | 0.5 °C | 0.3 °C | 3.5 °C | 6.4 °C | 1 °C | 1.5 °C | 1.2 °C | 0.7 °C | 0.2 °C | 8.1 °C | 1 °C | 0.8 °C | – | 5.7 °C | 2.3 °C | 1.8 °C | 1.3 °C | 2.3 °C | 5.1 °C |
| NS(=O)(=O)c1ccc(Nc2nc(OCC3CCCCC3)c3nc[nH]c3n2)cc1 | 2.2 °C | 4.7 °C | 4.1 °C | – | 0.3 °C | 0.7 °C | 2.7 °C | 0.6 °C | 1 °C | 1.4 °C | -0.1 °C | 0.6 °C | 1.3 °C | -0.3 °C | 1.7 °C | 3.8 °C | 4 °C | 1.3 °C | 2 °C |
| COc1ccc(S(=O)(=O)N(CCO)c2ccccc2CN(C)C/C=C/c2ccc(Cl)cc2)cc1 | 0 °C | -0.6 °C | 0.2 °C | – | -0.6 °C | -0.3 °C | -0.4 °C | -0.3 °C | -0.5 °C | -0.2 °C | -4.1 °C | 0.2 °C | -0.9 °C | 1.3 °C | -0.8 °C | -0.1 °C | -0.4 °C | 0.5 °C | 0.4 °C |
| O=C1Cc2c([nH]c3ccc(Br)cc23)-c2ccccc2N1 [KENPAULLONE] | 0.4 °C | -0.2 °C | 2.2 °C | 2.7 °C | -0.2 °C | 0.3 °C | 3.5 °C | 0.2 °C | 0.9 °C | 4.9 °C | 1 °C | 0.2 °C | – | 6.7 °C | 3.7 °C | 3.4 °C | 1.8 °C | 4.6 °C | 0.4 °C |
| O=C1NC(=O)C(c2cn(CCCn3ccnc3)c3ccccc23)=C1Nc1ccccc1 | 0.5 °C | 1.6 °C | 2 °C | – | 0.9 °C | -0.7 °C | 0.1 °C | 0.4 °C | 0.6 °C | 0.8 °C | 0.3 °C | 0 °C | 0.5 °C | -0.7 °C | -0.4 °C | 0.7 °C | 6.1 °C | -0.3 °C | 0.9 °C |
| CCOc1ccc(/C=C2/SC(=O)N(CCN)C2=O)cc1 [HIAZOLIDINEDIONE1] | -0.1 °C | -1.1 °C | 0.8 °C | – | 0 °C | 0.4 °C | 0.1 °C | 0.1 °C | 0.6 °C | 0.4 °C | 0.5 °C | 0.5 °C | 0 °C | -0.4 °C | -0.5 °C | 0.6 °C | -0.2 °C | 0.5 °C | 0.1 °C |
| CSc1nc(-c2ccc(F)cc2)c(-c2ccnc(NC(C)c3ccccc3)c2)[nH]1 (racemic) | 3.4 °C | -0.3 °C | 1.9 °C | – | -0.3 °C | -0.3 °C | 0 °C | 0.2 °C | 0.4 °C | 1.3 °C | -0.7 °C | 9.5 °C | 0.4 °C | -1.2 °C | -0.3 °C | 0.2 °C | 0 °C | -0.5 °C | 0.5 °C |
